Reference: US20230293482A1, “CENTRAL NERVOUS SYSTEM POTENTIATING COMPOSITION” (priority 2020, published 2023)

What was measured:
C57BL/6 male mice = experiment: Open field locomotor activity / wakening after single administration; type: in vivo; conditions: 25 μg/kg of body weight, open field 60 minutes; for locomotor activity: compared with control group; for wakening state: control animals repeated sleeping and wakening
healthy volunteers = experiment: Astringency sensory test, solutions held in oral cavity; type: in vivo, human; conditions: for astringency felt on oral ingestion: compared with other polyphenol compounds; for concentration at which astringency is exhibited in almost all cases: gradually diluted solutions held in oral cavity, ten healthy volunteers
Source text: Ten healthy volunteers held in their oral cavity, solutions obtained by gradually diluting (2R,3R)-2-(3,4-dihydroxyphenyl)-3,4-dihydro-2H-chromene-3,5,7-triol, and a dimer, a trimer or a tetramer obtained by condensing the above compound by a 4β→8 bond, 2-(3,4-dihydroxyphenyl)chromenylium-3,5,7-triol or 2-(3,4,5-trihydroxylphenyl)chromenylium-3,5,7-triol, 2-(3,4-hydroxyphenyl-3,5,7-trihydroxy-4H-1-benzopyran-4-one (quercetin), (2R,3R)-5,7-dihydroxy-2-(3,4,5-trihydroxyphenyl)-3,4-dihydro-2H-chromen-3-yl] 3,4,5-trihydroxybenzoate (EGCG), (2S)-5-hydroxy-2-(3-hydroxy-4-methoxyphenyl)-7-[(2S,3R,4S,5S,6R)-3,4,5-trihydroxy-6-[[(2R,3R,4R,5R,6S)-3,4,5- trihydroxy-6-methyloxan-2-yl]oxymethyl]oxan-2-yl]oxy -2,3-dihydrochromen-4-one (hesperidin), 7-hydroxy-3-(4-hydroxyphenyl)chromen-4-one (daidzein), and (1E,6E)-1,7-bis(4-hydroxy-3-methoxyphenyl)hepta-1,6-diene-3,5-dione (curcumin), and the concentrations at which the volunteers felt astringency were then observed.

Wistar male rats [1] = experiment: Blood flow of the cremasteric arteriole, 50% effective dose; type: in vivo; conditions: 1, 10, 100, 1000 μg/kg of body weight intragastric, 60 minutes after administration, laser Doppler
Method: Cannula was inserted into the stomach of Wistar male rats under anesthesia, and the cremaster muscle was prepared, Not only a dimer, a trimer or a tetramer obtained by condensing (2R,3R)-2-(3,4-dihydroxyphenyl)-3,4-dihydro-2H-chromene-3,5,7-triol by a 4β→8 bond, 2-(3,4-dihydroxylphenyl)chromenylium-3,5,7-triol, or 2-(3,4,5-trihydroxyphenyl)chromenylium-3,5,7-triol, but also (2R,3R)-2-(3,4-dihydroxyphenyl)-3,4-dihydro-2H-chromene-3,5,7-triol, 2-(3,4-hydroxyphenyl-3,5,7-trihydroxy-4H-1-benzopyran-4-one (quercetin), (2R,3R)-5,7-dihydroxy-2-(3,4,5-trihydroxyphenyl)-3,4-dihydro-2H-chromen-3-yl] 3,4,5-trihydroxybenzoate (EGCG), (2S)-5-hydroxy-2-(3-hydroxy-4-methoxyphenyl)-7-[(2S,3R,4S,5S,6R)-3,4,5-trihydroxy-6-[[(2R,3R,4R,5R,6S)-3,4,5-trihydroxy-6-methylaxan-2-yl]oxymethyl]oxan-2-yl]oxy-2,3-dihydrochromen-4-one (hesperidin), 7-hydroxy-3(4-hydroxyphenyl)chromen-4-one (daidzein), (1E,6E)-1,7-bis(4-hydroxy-3-methoxyphenyl)hepta-1,6-diene-3,5-dione (curcumin), 5-[(E)-2-(4-hydroxyphenypenyl)ethenyl]-1,3-benzenediol (resveratrol), and (2R,3R)-2-(4-hydroxyphenyl)-3-(3,5-dihydroxyphenyl)-6-[(E)-4-hydroxystyryl]-2,3-dihydrobenzofuran-4-ol (Gnefin C), were administered to the rats at doses of 1, 10, 100, and 1000 μg/kg of body weight. A fluctuation in the blood flow of the cremasteric arteriole 60 minutes after the administration was measured using a laser Doppler blood-flowmeter. […] The 50% effective dose of the compound obtained by condensing (2R,3R)-2-(3,4-dihydroxyphenyl)-3,4-dihydro-2H-chromene-3,5,7-triol by a 4β→8 bond was in the range of 1 to 30 μg/kg of body weight, whereas the 50% effective dose of 2-(3,4-dihydroxyphenyl)chromenylium-3,5,7-triol or 2-(3,4,5-trihydroxylphenyl)chromenylium-3,5,7-triol was in the range of 50 to 100 μg/kg of body weight.

Wistar male rats [2] = experiment: Blood pressure after repeated administration with/without N-acetylcysteine; type: in vivo
Method: Wistar male rats were divided into 4 groups, and thereafter, 2-(3,4-dihydroxyphenyl)-3-(D-glucopyranooxyl)chromenylium-3,5,7-triol (1 mg/kg of body weight) and/or N-acetylcysteine (100 mg/kg of body weight) were co-administered to the laboratory animals for 14 days. Thereafter, the blood pressure of the animals was measured over time, using a non-heated type sphygmomanometer.

Wistar male rats [3] = experiment: Neovascularization, CD31 immunostaining of muscle; type: in vivo; conditions: 1 mg/kg of body weight for 14 days, compared with control group
Method: Wistar male rats were divided into 2 groups, and thereafter, a tetramer of 2-(3,4-dihydroxyphenyl)-3-(D-glucopyranooxyl)chromenylium-3,5,7-triol (1 mg/kg of body weight) was co-administered. to the laboratory animals for 14 days, Thereafter, the animals were subjected to dissection. A frozen section was prepared from the excised extensor digitorum longus muscle or soleus muscle, and CD31 serving as a neovascularization marker was then detected by applying an immunostaining method.

Row | Compound | locomotor activity (C57BL/6 male mice) | wakening state (C57BL/6 male mice) | astringency felt on oral ingestion (healthy volunteers) | concentration at which astringency is exhibited in almost all cases (healthy volunteers) | fluctuation in the blood flow of the cremasteric arteriole (Wistar male rats [1]) | blood pressure change on co-administration with N-acetylcysteine (Wistar male rats [2]; 1 mg/kg of body weight + N-acetylcysteine 100 mg/kg for 14 days) | blood pressure (Wistar male rats [2]; 1 mg/kg of body weight for 14 days, Day 7 and Day 14) | CD31 expression / neovascularization in extensor digitorum longus or soleus muscle (Wistar male rats [3])
1 | Oc1cc(O)c2cc(O)c(-c3ccc(O)c(O)c3)[o+]c2c1 [2-(3,4-dihydroxyphenyl)chromenylium-3,5,7-triol] | significantly increased | the animals were in a wakening state | strong astringency | 10 µg/mL | dose-dependent blood flow-increasing action | – | – | –
2 | Oc1cc(O)c2cc(O)c(-c3cc(O)c(O)c(O)c3)[o+]c2c1 [2-(3,4,5-trihydroxylphenyl)chromenylium-3,5,7-triol] | – | – | strong astringency | 10 µg/mL | dose-dependent blood flow-increasing action | – | – | –
3 | Oc1cc(O)c2c(c1)O[C@H](c1ccc(O)c(O)c1)[C@H](O)[C@H]2c1c(O)cc(O)c2c1O[C@H](c1ccc(O)c(O)c1)[C@H](O)C2 [dimer] | significantly increased | the animals were in a wakening state | – | 10 µg/mL | dose-dependent blood flow-increasing action | – | – | –
4 | Oc1cc(O)c2c(c1)O[C@H](c1ccc(O)c(O)c1)[C@H](O)[C@H]2c1c(O)cc(O)c2c1O[C@H](c1ccc(O)c(O)c1)[C@H](O)[C@H]2c1c(O)cc(O)c2c1O[C@H](c1ccc(O)c(O)c1)[C@H](O)C2 [trimer] | significantly increased | the animals were in a wakening state | – | 10 µg/mL | dose-dependent blood flow-increasing action | – | – | –
5 | OC[C@H]1OC(Oc2cc3c(O)cc(O)cc3[o+]c2-c2ccc(O)c(O)c2)[C@H](O)[C@@H](O)[C@@H]1O (stereo partly drawn) [2-(3,4-dihydroxyphenyl)-3-(D-glucopyranooxyl)chromenylium-3,5,7-triol] | – | – | – | – | – | disappeared | significantly decreased | a significant expression of CD31 was observed
